# Results reported in patent US8765773B2, “Substituted hydroxamic acids and uses thereof” (Millennium Pharmaceuticals, Inc., priority 2010, dated 2014).
# Target: T1, purified human HDAC6 (Homo sapiens, UniProt Q9UBN7)
# T1 construct: purchased BPS Bioscience 5006
# T1 sequence (Q9UBN7 1-1215): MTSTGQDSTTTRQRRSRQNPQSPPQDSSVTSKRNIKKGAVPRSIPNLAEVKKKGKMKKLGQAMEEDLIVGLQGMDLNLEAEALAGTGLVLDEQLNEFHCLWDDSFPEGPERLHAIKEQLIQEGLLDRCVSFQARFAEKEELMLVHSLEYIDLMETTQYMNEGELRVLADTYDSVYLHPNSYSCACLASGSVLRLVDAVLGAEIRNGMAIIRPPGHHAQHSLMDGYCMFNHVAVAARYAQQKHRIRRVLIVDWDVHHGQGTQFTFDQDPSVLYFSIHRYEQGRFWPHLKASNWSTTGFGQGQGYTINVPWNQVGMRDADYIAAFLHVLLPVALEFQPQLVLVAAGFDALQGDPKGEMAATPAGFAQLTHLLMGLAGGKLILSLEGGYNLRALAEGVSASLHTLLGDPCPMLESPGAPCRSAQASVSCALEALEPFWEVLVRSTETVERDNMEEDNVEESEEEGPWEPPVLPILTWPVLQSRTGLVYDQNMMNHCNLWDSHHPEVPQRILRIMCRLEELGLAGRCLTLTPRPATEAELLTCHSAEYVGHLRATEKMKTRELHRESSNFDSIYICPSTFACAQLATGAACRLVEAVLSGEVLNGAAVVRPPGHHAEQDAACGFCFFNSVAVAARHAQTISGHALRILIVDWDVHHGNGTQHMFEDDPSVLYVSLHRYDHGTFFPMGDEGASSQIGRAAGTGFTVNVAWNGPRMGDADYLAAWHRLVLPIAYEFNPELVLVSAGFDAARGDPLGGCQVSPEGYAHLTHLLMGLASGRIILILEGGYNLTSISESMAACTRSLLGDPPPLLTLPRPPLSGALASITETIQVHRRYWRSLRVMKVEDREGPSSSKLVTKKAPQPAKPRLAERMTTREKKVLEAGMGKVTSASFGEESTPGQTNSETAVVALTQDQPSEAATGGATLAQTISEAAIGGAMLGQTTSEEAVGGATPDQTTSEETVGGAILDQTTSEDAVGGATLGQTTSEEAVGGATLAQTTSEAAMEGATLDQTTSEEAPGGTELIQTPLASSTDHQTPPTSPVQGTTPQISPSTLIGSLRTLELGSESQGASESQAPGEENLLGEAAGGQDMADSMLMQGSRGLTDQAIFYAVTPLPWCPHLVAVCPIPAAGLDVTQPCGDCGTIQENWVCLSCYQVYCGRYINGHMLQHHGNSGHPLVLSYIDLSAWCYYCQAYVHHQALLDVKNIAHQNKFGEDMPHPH
# Assay: HDAC6 Enzyme Assay
# Assay type: biochemical
# Settings: compound concentration 0.37 μM, read-out: Percent Inhibition
# Experimental: To measure the inhibition of HDAC6 activity, purified human HDAC6 (BPS Bioscience; Cat. No. 5006) is incubated with substrate Ac-Arg-Gly-Lys(Ac)-AMC peptide (Bachem Biosciences; Cat. No. I-1925) for 1 hour at 30° C. in the presence of test compounds or vehicle DMSO control. The reaction is stopped with the HDAC inhibitor trichostatin A (Sigma; Cat. No. T8552) and the amount of Arg-Gly-Lys-AMC generated is quantitated by digestion with trypsin (Sigma; Cat. No. T1426) and subsequent measurement of the amount of AMC released using a fluorescent plate reader (Pherastar; BMG Technologies) set at Ex 340 nm and Em 460 nm. Concentration response curves are generated by calculating the fluorescence increase in test compound-treated samples relative to DMSO-treated controls, and percentage inhibition values at a single concentration or enzyme inhibition (IC50) values are determined from those curves. One skilled in the art will appreciate that the values generated either as percentage inhibition at a single concentration or IC50 values are subject to experimental variation.
row,SMILES,inhibition at 0.37 µM [%]
1,"Cc1ccccc1Cc1nc2cc(C(=O)NO)ccc2c(=O)n1Cc1ccc(C(F)(F)F)cc1 [Compound I-35, N-hydroxy-2-(2-methylbenzyl)-4-oxo-3-[4-(trifluoromethyl)benzyl]-3,4-dihydroquinazoline-7-carboxamide]",66
2,"O=C(NO)c1ccc2ccn(Cc3cccc(-n4ncc5ccccc54)c3)c(=O)c2c1 [Compound I-137, N-hydroxy-2-[3-(1H-indazol-1-yl)benzyl]-1-oxo-1,2-dihydroisoquinoline-7-carboxamide]",99.5
3,"O=C(NO)c1ccc2c(=O)n(Cc3ccc(C(F)(F)F)cc3)c(-c3cnc(N4CCOCC4)s3)nc2c1 [Compound I-237, N-hydroxy-2-(2-morpholin-4-yl-1,3-thiazol-5-yl)-4-oxo-3-[4-(trifluoromethyl)benzyl]-3,4-dihydroquinazoline-7-carboxamide]",88
4,"CCn1nccc1-c1nc2cc(C(=O)NO)ccc2c(=O)[nH]1 [Compound I-399, 2-(1-ethyl-1H-pyrazol-5-yl)-N-hydroxy-4-oxo-3,4-dihydroquinazoline-7-carboxamide]",61.8
5,"CC(C)C(c1ccccc1)n1cnc2ccc(C(=O)NO)cc2c1=O (stereo not drawn) [Compound I-338, N-hydroxy-3-(2-methyl-1-phenylpropyl)-4-oxo-3,4-dihydroquinazoline-6-carboxamide]",96.8
6,"O=C(NO)c1ccc2c(=O)[nH]c(-c3ccccc3)nc2c1 [Compound I-401, N-hydroxy-4-oxo-2-phenyl-3,4-dihydroquinazoline-7-carboxamide]",88.2
7,"COc1ncccc1-c1cccc(CCn2cnc3ccc(C(=O)NO)cc3c2=O)c1 [Compound I-320, N-hydroxy-3-{2-[3-(2-methoxypyridin-3-yl)phenyl]ethyl}-4-oxo-3,4-dihydroquinazoline-6-carboxamide]",90.4
8,"O=C(NO)c1ccc2ccn(-c3ccccc3)c(=O)c2c1 [Compound I-154, N-hydroxy-1-oxo-2-phenyl-1,2-dihydroisoquinoline-7-carboxamide]",93.9
9,"O=C(NO)c1ccc2ncn(Cc3cccc(-c4ccc(S(=O)(=O)N5CCCCC5)cc4)c3)c(=O)c2c1 [Compound I-254, N-hydroxy-4-oxo-3-{[4′-(piperidin-1-ylsulfonyl)biphenyl-3-yl]methyl}-3,4-dihydroquinazoline-6-carboxamide]",94
10,"CC(C)c1ccc(-c2cccc(Cn3cnc4ccc(C(=O)NO)cc4c3=O)c2)cc1 [Compound I-32, N-hydroxy-3-[(4′-isopropylbiphenyl-3-yl)methyl]-4-oxo-3,4-dihydroquinazoline-6-carboxamide]",83.6
11,"O=C(NO)c1ccc2ccn(-c3cccc(-c4ccncc4)c3)c(=O)c2c1 [Compound I-328, N-hydroxy-1-oxo-2-(3-pyridin-4-ylphenyl)-1,2-dihydroisoquinoline-7-carboxamide]",96.7

# Same assay, conditions: compound concentration 0.412 μM, read-out: Percent Inhibition
row,SMILES,inhibition at 0.412 µM [%]
1,"O=C(NO)c1ccc2ccn(Cc3c(F)cc(F)cc3F)c(=O)c2c1 [Compound I-102, N-hydroxy-1-oxo-2-(2,4,6-trifluorobenzyl)-1,2-dihydroisoquinoline-7-carboxamide]",94.3
2,"CC(C)c1nc2cc(C(=O)NO)ccc2c(=O)[nH]1 [Compound I-214, N-hydroxy-2-isopropyl-4-oxo-3,4-dihydroquinazoline-7-carboxamide]",65.8
3,"COc1ccc(Nc2nc3ccc(C(=O)NO)cc3c(=O)n2C)cc1 [Compound I-70, N-hydroxy-2-[(4-methoxyphenyl)amino]-3-methyl-4-oxo-3,4-dihydroquinazoline-6-carboxamide]",46.7
4,"O=C(NO)c1ccc2ccn(CCCOc3cccc(-c4csnn4)c3)c(=O)c2c1 [Compound I-72, N-hydroxy-1-oxo-2-{3-[3-(1,2,3-thiadiazol-4-yl)phenoxy]propyl}-1,2-dihydroisoquinoline-7-carboxamide]",94.1
5,"O=C(NO)c1ccc2c(=O)[nH]c(COc3ccccc3C(F)(F)F)nc2c1 [Compound I-168, N-hydroxy-4-oxo-2-{[2-(trifluoromethyl)phenoxy]methyl}-3,4-dihydroquinazoline-7-carboxamide]",72.8
6,"O=C(NO)c1ccc2ccn(Cc3ccccc3Cl)c(=O)c2c1 [Compound I-162, 2-(2-chlorobenzyl)-N-hydroxy-1-oxo-1,2-dihydroisoquinoline-7-carboxamide]",94.2
7,"O=C(NO)c1ccc2c(=O)n(Cc3ccc(C(F)(F)F)cc3)c(C3CCCCC3)nc2c1 [Compound I-150, 2-cyclohexyl-N-hydroxy-4-oxo-3-[4-(trifluoromethyl)benzyl]-3,4-dihydroquinazoline-7-carboxamide]",30.1
8,"O=C(NO)c1ccc2nc[nH]c(=O)c2c1 [Compound I-283, N-hydroxy-4-oxo-3,4-dihydroquinazoline-6-carboxamide]",63.3
9,"Cc1cccc(OCc2nc3cc(C(=O)NO)ccc3c(=O)[nH]2)c1 [Compound I-107, N-hydroxy-2-[(3-methylphenoxy)methyl]-4-oxo-3,4-dihydroquinazoline-7-carboxamide]",85.2
10,"O=C(NO)c1ccc2ccn(CCCc3ccc(Cl)cc3)c(=O)c2c1 [Compound I-131, 2-[3-(4-chlorophenyl)propyl]-N-hydroxy-1-oxo-1,2-dihydroisoquinoline-7-carboxamide]",96.9
11,"O=C(NO)c1ccc2ccn(C3CCCCCC3)c(=O)c2c1 [Compound I-117, 2-cycloheptyl-N-hydroxy-1-oxo-1,2-dihydroisoquinoline-7-carboxamide]",93.3
12,"O=C(NO)c1ccc2ccn(CCOc3ccccc3C(F)(F)F)c(=O)c2c1 [Compound I-175, N-hydroxy-1-oxo-2-{2-[2-(trifluoromethyl)phenoxy]ethyl}-1,2-dihydroisoquinoline-7-carboxamide]",95.9
13,"Cn1cnc2cc(C(=O)NO)ccc2c1=O [Compound I-242, N-hydroxy-3-methyl-4-oxo-3,4-dihydroquinazoline-7-carboxamide]",68.8
14,"O=C(NO)c1ccc2ncn(Cc3ccc(F)cc3)c(=O)c2c1 [Compound I-115, 3-(4-fluorobenzyl)-N-hydroxy-4-oxo-3,4-dihydroquinazoline-6-carboxamide]",90.2
15,"COc1cc(OC)cc(OCCn2ccc3ccc(C(=O)NO)cc3c2=O)c1 [Compound I-101, 2-[2-(3,5-dimethoxyphenoxy)ethyl]-N-hydroxy-1-oxo-1,2-dihydroisoquinoline-7-carboxamide]",95.7
16,"COc1ccc(NCCCn2ccc3ccc(C(=O)NO)cc3c2=O)cc1 [Compound I-34, N-hydroxy-2-{3-[(4-methoxyphenyl)amino]propyl}-1-oxo-1,2-dihydroisoquinoline-7-carboxamide]",94.3
17,"O=C(NO)c1ccc2ccn(CCCOc3cccc(C(F)(F)F)c3)c(=O)c2c1 [Compound I-176, N-hydroxy-1-oxo-2-{3-[3-(trifluoromethyl)phenoxy]propyl}-1,2-dihydroisoquinoline-7-carboxamide]",94.2
18,"O=C(NO)c1ccc2ccn(C3CCC3)c(=O)c2c1 [Compound I-64, 2-cyclobutyl-N-hydroxy-1-oxo-1,2-dihydroisoquinoline-7-carboxamide]",93.1
19,"O=C(NO)c1ccc2ccn(CCOc3ccc(Cl)cc3)c(=O)c2c1 [Compound I-246, 2-[2-(4-chlorophenoxy)ethyl]-N-hydroxy-1-oxo-1,2-dihydroisoquinoline-7-carboxamide]",97.7
